Some test systems named below: SK-OV-3 ovarian; MOLT-4 leukemia; IGROV1 ovarian; HT29 colon; HOP-62 NSCLC; SNB-19 CNS; A549 NSCLC; NCI-H23 lung; SR leukemia; UACC-257 melanoma.
What all share (experiment): NCI-60 cell line screen, 48 h

This is an account of results in PubChem BioAssay (NCI).

Molecules are shown by their SMILES.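 Growth conditions: 96-well plates. Treatment: test compound, 48 hours, 5 concentrations. Analysis: linear interpolation between bracketing concentrations; unreached endpoints set to highest concentration. At the GI50, growth is halved. At the TGI there is no net growth.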 A value given as a limit tells only on which side of the number the result lay.

Consider `COC(=O)C1CCCC2(C1)OCCO2` (stereo not given), for which the TGI in the test on SK-OV-3 ovarian, in the test with MOLT-4 leukemia, with IGROV1 ovarian, in the test on HT29 colon, with HOP-62 NSCLC and with SNB-19 CNS was more than 100 µM throughout. For the same compound, the TGI in the test with A549 NSCLC, with NCI-H23 lung, with SR leukemia and in the test on UACC-257 melanoma was more than 100 µM each time.

`O=C(/C=C/c1ccc[nH]1)c1ccc(-n2ccc(C(F)(F)F)n2)cc1`: the GI50 with SK-OV-3 ovarian is more than 100 µM; with MOLT-4 leukemia, 13.8 µM; with IGROV1 ovarian, more than 100 µM; in the test on HT29 colon it was more than 100 µM; in the test on HOP-62 NSCLC it was more than 100 µM; in the test on SNB-19 CNS it was more than 100 µM. Besides, the GI50 in the test on A549 NSCLC is 9.64 µM; in the test with NCI-H23 lung, more than 100 µM; in the test with SR leukemia it was 9.15 µM; in the test on UACC-257 melanoma, more than 100 µM. Besides, the TGI in the test with SK-OV-3 ovarian, in the test with MOLT-4 leukemia, in the test on IGROV1 ovarian, with HT29 colon, in the test on HOP-62 NSCLC and with SNB-19 CNS was more than 100 µM throughout. Also, the TGI in the test with A549 NSCLC, in the test with NCI-H23 lung, in the test with SR leukemia and in the test on UACC-257 melanoma was more than 100 µM each time.

As to `COc1ccc(CCN(C)C2CCC(C#N)(c3ccc(OC)c(OC)c3)CC2)cc1OC` (stereo not given), the TGI in the test on SK-OV-3 ovarian, with MOLT-4 leukemia, with IGROV1 ovarian, in the test with HT29 colon, in the test with HOP-62 NSCLC and in the test on SNB-19 CNS was more than 100 µM throughout. The TGI with A549 NSCLC, in the test with NCI-H23 lung, in the test on SR leukemia and in the test with UACC-257 melanoma was more than 100 µM each time.

For `COC(=O)[C@]12CC[C@@H](C)[C@H](C)[C@@H]1C1=CC[C@@H]3[C@@]4(C)C[C@@H](O)[C@H](O)[C@@](C)(CO)C4=CC[C@@]3(C)[C@]1(C)CC2`, the GI50 with SK-OV-3 ovarian is 19.7 µM; in the test on MOLT-4 leukemia it was 15.5 µM; with IGROV1 ovarian it was 22 µM; in the test on HT29 colon, 15.9 µM; in the test on HOP-62 NSCLC, 21.3 µM; with SNB-19 CNS, 18 µM. In addition, the GI50 is 17.3 µM in the test with A549 NSCLC, 16.2 µM with NCI-H23 lung, 17.1 µM in the test on SR leukemia and 20.1 µM with UACC-257 melanoma. Moreover, the TGI with SK-OV-3 ovarian was 34.4 µM; with MOLT-4 leukemia, 31.7 µM; in the test on IGROV1 ovarian it was 43.1 µM; in the test with HT29 colon it was 33.5 µM; in the test with HOP-62 NSCLC, 39.2 µM; in the test with SNB-19 CNS it was 38.5 µM. For the same compound, the TGI in the test on A549 NSCLC is 35.4 µM; in the test with NCI-H23 lung, 33.6 µM; with SR leukemia, 37.4 µM; with UACC-257 melanoma it was 35.5 µM.

With `Cc1c(N(C)C)ccc2c(=O)c3cccc(CC(=O)O)c3oc12`, the TGI is more than 100 µM in the test with SK-OV-3 ovarian; more than 100 µM with MOLT-4 leukemia; more than 100 µM in the test on IGROV1 ovarian; more than 100 µM with HT29 colon; more than 100 µM with HOP-62 NSCLC; more than 69 µM in the test with SNB-19 CNS. The TGI in the test on A549 NSCLC, in the test with NCI-H23 lung, in the test with SR leukemia and in the test on UACC-257 melanoma was more than 100 µM throughout.

As to `CCC[CH2][Sn]([CH2]CCC)([O]C(=O)c1ccc(OC)c(OC)c1OC)[O][Sn]([CH2]CCC)([CH2]CCC)[O]C(=O)c1ccc(OC)c(OC)c1OC`, the GI50 in the test with SK-OV-3 ovarian was 1.24 µM; in the test on MOLT-4 leukemia, 0.0804 µM; with IGROV1 ovarian it was 0.891 µM; with HT29 colon, 0.831 µM; in the test with HOP-62 NSCLC, 1.61 µM; in the test on SNB-19 CNS, 0.285 µM. In addition, the GI50 was 2.27 µM in the test on A549 NSCLC, 0.142 µM in the test with NCI-H23 lung, 0.315 µM in the test with SR leukemia and 0.217 µM with UACC-257 melanoma. The TGI is 2.59 µM in the test on SK-OV-3 ovarian; 2.34 µM in the test with MOLT-4 leukemia; 2.47 µM in the test on IGROV1 ovarian; 2.31 µM with HT29 colon; 2.98 µM with HOP-62 NSCLC; 0.635 µM in the test on SNB-19 CNS. Moreover, the TGI with A549 NSCLC was 5.42 µM; in the test with NCI-H23 lung, 0.535 µM; in the test on SR leukemia, more than 100 µM; in the test on UACC-257 melanoma, 0.549 µM.

In the case of `Cc1nc(Nc2cccnc2)sc1C(=O)/C=C/c1ccc(F)cc1`, the GI50 was 3.85 µM with SK-OV-3 ovarian; 3.2 µM with MOLT-4 leukemia; 2.85 µM in the test on IGROV1 ovarian; 2.76 µM in the test on HT29 colon; 2.61 µM with HOP-62 NSCLC; 3.34 µM with SNB-19 CNS. Moreover, the GI50 in the test with A549 NSCLC was 3.15 µM; in the test on NCI-H23 lung, 3.93 µM; in the test on SR leukemia it was 1.69 µM; with UACC-257 melanoma it was 5.87 µM. Further, the TGI in the test with SK-OV-3 ovarian was more than 100 µM; in the test with MOLT-4 leukemia, more than 100 µM; in the test on IGROV1 ovarian, more than 100 µM; in the test with HT29 colon, 10.1 µM; in the test with HOP-62 NSCLC it was 7.6 µM; in the test on SNB-19 CNS it was 15.9 µM. Moreover, the TGI in the test on A549 NSCLC is more than 100 µM; in the test with NCI-H23 lung, 20.7 µM; in the test with SR leukemia, more than 100 µM; in the test with UACC-257 melanoma it was 28.6 µM.
